{"source": "ChEMBL document CHEMBL4304766", "about": "“DMSO-Perturbing Assay for Identifying Promiscuous Enzyme Inhibitors” (ACS Med Chem Lett, 2019)", "key": {"Beta-lactamase [1]": {"biological_target": "T1, Beta-lactamase (Enterobacter cloacae, UniProt P05364)", "T1 sequence (P05364 whole entry)": "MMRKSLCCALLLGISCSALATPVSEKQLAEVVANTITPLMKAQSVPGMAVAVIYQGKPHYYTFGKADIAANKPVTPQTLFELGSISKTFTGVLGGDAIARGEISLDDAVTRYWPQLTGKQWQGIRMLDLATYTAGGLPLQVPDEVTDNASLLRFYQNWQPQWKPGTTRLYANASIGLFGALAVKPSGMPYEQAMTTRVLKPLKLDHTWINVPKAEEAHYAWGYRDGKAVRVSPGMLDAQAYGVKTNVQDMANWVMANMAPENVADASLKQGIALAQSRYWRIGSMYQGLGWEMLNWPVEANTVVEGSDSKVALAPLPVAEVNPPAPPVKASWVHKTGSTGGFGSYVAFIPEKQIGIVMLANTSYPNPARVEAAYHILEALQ", "assay": "Inhibition of Enterobacter cloacae beta-lactamase incubated for 10 mins followed by nitrocefin substrate challenge and measured for 5 mins by spectrophotometric analysis"}, "Chymotrypsinogen A [2]": {"biological_target": "T2, Chymotrypsinogen A (Bos taurus, UniProt P00766)", "assay": "(§1) Inhibition of alpha-chymotrypsin in bovine pancreas using SPpNA as substrate pretreated with enzyme for 30 mins followed by substrate addition and measured for 12 mins by spectrophotometric analysis"}, "Chymotrypsinogen A [3]": {"biological_target": "T2, Chymotrypsinogen A", "assay": "Inhibition of alpha-chymotrypsin in bovine pancreas using SPpNA as substrate pretreated with enzyme for 30 mins followed by substrate addition and measured for 12 mins in presence of Triton X-100 by spectrophotometric analysis"}, "[4]": {"biological_target": "Chymotrypsinogen A (Bos taurus) (UniProt P00766)", "assay": "Inhibition of bovine pancreas alpha-chymotrypsin at concentration of 6 uM using SPpNA as substrate treated with enzyme for 30 mins following enzyme incubation with 0.7 to 2.1 M DMSO for 5 mins followed by substrate addition and measured for 12 mins by DMSO-perturbation assay"}, "Bacillus cereus [5]": {"test_system": "Bacillus cereus", "assay": "Inhibition of Bacillus cereus 569/H9 beta-lactamase incubated for 10 mins followed by nitrocefin substrate challenge and measured for 5 mins by spectrophotometric analysis"}, "[6]": {"biological_target": "Chymotrypsinogen A (Bos taurus) (UniProt P00766)", "assay": "as §1"}, "Bacillus cereus [7]": {"test_system": "Bacillus cereus", "assay": "Inhibition of Bacillus cereus 569/H9 beta-lactamase treated with enzyme for 10 mins following enzyme incubation with 0.7 to 2.1 M DMSO for 5 mins followed by nitrocefin substrate challenge and measured for 5 mins by DMSO-perturbation assay"}, "Beta-lactamase [8]": {"biological_target": "T1, Beta-lactamase", "assay": "Inhibition of Enterobacter cloacae beta-lactamase incubated for 10 mins followed by nitrocefin substrate challenge and measured for 5 mins in presence of Triton X-100 by spectrophotometric analysis"}, "[9]": {"biological_target": "Chymotrypsinogen A (Bos taurus) (UniProt P00766)", "assay": "Inhibition of alpha-chymotrypsin in bovine pancreas at 300 uM using SPpNA as substrate pretreated with enzyme for 30 mins followed by substrate addition and measured for 12 mins by spectrophotometric analysis relative to control"}, "[10]": {"biological_target": "Beta-lactamase (Enterobacter cloacae) (UniProt P05364)", "sequence (P05364 21-381 limits assumed)": "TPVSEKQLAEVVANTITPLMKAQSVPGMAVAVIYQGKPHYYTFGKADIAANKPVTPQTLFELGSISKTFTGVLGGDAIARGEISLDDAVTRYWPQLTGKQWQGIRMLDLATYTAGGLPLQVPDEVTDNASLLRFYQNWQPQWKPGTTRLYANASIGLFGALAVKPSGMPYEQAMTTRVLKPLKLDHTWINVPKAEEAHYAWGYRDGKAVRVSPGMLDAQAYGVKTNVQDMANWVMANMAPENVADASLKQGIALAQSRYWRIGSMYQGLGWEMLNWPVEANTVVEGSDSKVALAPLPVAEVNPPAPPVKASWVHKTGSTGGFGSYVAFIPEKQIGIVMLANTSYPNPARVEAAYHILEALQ", "assay": "(§2) Inhibition of Enterobacter cloacae beta-lactamase incubated for 10 mins followed by nitrocefin substrate challenge and measured for 5 mins in presence of 1 mM DTT by spectrophotometric analysis"}, "[11]": {"biological_target": "Chymotrypsinogen A (Bos taurus) (UniProt P00766)", "assay": "Inhibition of bovine pancreas alpha-chymotrypsin at concentration of 6 nM using SAAPPpNA as substrate treated with enzyme for 30 mins following enzyme incubation with 0.7 to 2.1 M DMSO for 5 mins followed by substrate addition and measured for 12 mins by DMSO-perturbation assay"}, "[12]": {"assay": "Drug metabolism in DMSO-d6/potassium phosphate buffer assessed as drug recovery with small amount of metabolite formation by 1H-NMR analysis"}, "Beta-lactamase [13]": {"biological_target": "T1, Beta-lactamase", "assay": "as §2"}, "[14]": {"biological_target": "Beta-lactamase (Enterobacter cloacae) (UniProt P05364)", "assay": "Inhibition of Enterobacter cloacae beta-lactamase at 200 uM incubated for 10 mins followed by nitrocefin substrate challenge and measured for 5 mins in presence of 1 mM DTT by spectrophotometric analysis relative to control"}, "[15]": {"biological_target": "Beta-lactamase (Enterobacter cloacae) (UniProt P05364)", "assay": "Inhibition of Enterobacter cloacae beta-lactamase at 500 uM incubated for 10 mins followed by nitrocefin substrate challenge and measured for 5 mins by spectrophotometric analysis relative to control"}}, "note": "Active and inactive are the calls of the source. The rule behind the calls is not given here."}
{"smiles": "O=c1cc(-c2ccc(O)c(O)c2)oc2ccccc12", "values": [{"measurement": "IC50", "setting": "Beta-lactamase [1]", "result": "Nd(Insoluble)"}, {"measurement": "IC50", "setting": "Chymotrypsinogen A [2]; read-out: IC50", "result": 226, "unit": "µM"}, {"measurement": "IC50", "setting": "Chymotrypsinogen A [3]", "result": 270, "unit": "µM"}]}
{"smiles": "CC(C)C[C@@H](N)C(=O)N[C@@H](Cc1ccccc1)C(=O)NCc1ccc(F)cc1", "values": [{"measurement": "inhibition", "setting": "[4]", "result": "Active"}]}
{"smiles": "CC1(C)[C@@H](O[C@H]2O[C@H](C(=O)O)[C@@H](O)[C@H](O)[C@H]2O[C@@H]2O[C@H](C(=O)O)[C@@H](O)[C@H](O)[C@H]2O)CC[C@]2(C)[C@H]3C(=O)C=C4[C@@H]5C[C@@](C)(C(=O)O)CC[C@]5(C)CC[C@@]4(C)[C@]3(C)CC[C@@H]12", "values": [{"measurement": "inhibition", "setting": "Bacillus cereus [5]", "result": "inactive"}]}
{"smiles": "CCCCCCCCCCCCCCCC(=O)OC[C@H](O)[C@H]1OC(=O)C(O)=C1O", "values": [{"measurement": "inhibition", "setting": "[6]", "result": "inactive"}, {"measurement": "inhibition", "setting": "Bacillus cereus [5]", "result": "inactive"}]}
{"smiles": "COc1ccc2c(c1)c(CC(=O)O)c(C)n2C(=O)c1ccc(Cl)cc1", "values": [{"measurement": "inhibition", "setting": "[6]", "result": "inactive"}, {"measurement": "inhibition", "setting": "Bacillus cereus [5]", "result": "inactive"}]}
{"smiles": "O=C(O)[C@H]1/C(=C/CO)O[C@@H]2CC(=O)N21", "values": [{"measurement": "inhibition", "setting": "Bacillus cereus [7]", "result": "Active"}]}
{"smiles": "O=C(O)[C@H]1O[C@@H](Oc2cc3oc(-c4ccccc4)cc(=O)c3c(O)c2O)[C@H](O)[C@@H](O)[C@@H]1O", "values": [{"measurement": "inhibition", "setting": "Bacillus cereus [5]", "result": "inactive"}]}
{"smiles": "O=C(O)c1cc(=O)c2c(OCC(O)COc3cccc4oc(C(=O)O)cc(=O)c34)cccc2o1", "values": [{"measurement": "inhibition", "setting": "[6]", "result": "inactive"}, {"measurement": "inhibition", "setting": "Bacillus cereus [5]", "result": "inactive"}]}
{"smiles": "O=C(O[C@@H]1Cc2c(O)cc(O)cc2O[C@@H]1c1cc(O)c(O)c(O)c1)c1cc(O)c(O)c(O)c1", "values": [{"measurement": "inhibition", "setting": "Bacillus cereus [5]", "result": "inactive"}]}
{"smiles": "Oc1cc(O)c2c(c1)O[C@H](c1ccc(O)c(O)c1)[C@H](O)C2", "values": [{"measurement": "inhibition", "setting": "Bacillus cereus [5]", "result": "inactive"}]}
{"smiles": "CC1(C)S[C@@H]2[C@H](NC(=O)Cc3ccccc3)C(=O)N2[C@H]1C(=O)O", "note": "[PENICILLIN G SODIUM]", "values": [{"measurement": "IC50", "setting": "Beta-lactamase [1]; read-out: IC50", "result": 7.2, "unit": "µM"}, {"measurement": "IC50", "setting": "Beta-lactamase [8]", "result": 3.6, "unit": "µM"}]}
{"smiles": "O=C(CCc1ccc(O)cc1)c1c(O)cc(O)cc1O", "note": "[PHLORETIN]", "values": [{"measurement": "IC50", "setting": "Beta-lactamase [1]; read-out: IC50", "result": 496, "unit": "µM"}, {"measurement": "IC50", "setting": "Chymotrypsinogen A [2]; read-out: IC50", "result": "> 300", "unit": "µM"}, {"measurement": "inhibition", "setting": "[9]", "result": 9.9, "unit": "%"}, {"measurement": "inhibition", "setting": "[10]", "result": "Active"}]}
{"smiles": "O=c1c(O)c(-c2ccc(O)c(O)c2)oc2cc(O)cc(O)c12", "note": "[QUERCETIN]", "values": [{"measurement": "IC50", "setting": "Beta-lactamase [1]; read-out: IC50", "result": 85, "unit": "µM"}, {"measurement": "IC50", "setting": "Beta-lactamase [8]", "result": "> 500", "unit": "µM"}, {"measurement": "inhibition", "setting": "[4]", "result": "Active"}, {"measurement": "inhibition", "setting": "[11]", "result": "Active"}, {"measurement": "Drug metabolism", "setting": "[12]", "result": "Metabolite detected"}, {"measurement": "IC50", "setting": "Beta-lactamase [13]", "result": 224, "unit": "µM"}]}
{"smiles": "CC(=O)c1c(O)c(C)c(O)c(Cc2c(O)c3c(c(C(=O)/C=C/c4ccccc4)c2O)OC(C)(C)C=C3)c1O", "note": "[ROTTLERIN]", "values": [{"measurement": "IC50", "setting": "Beta-lactamase [1]; read-out: IC50", "result": 96, "unit": "µM"}, {"measurement": "IC50", "setting": "Beta-lactamase [8]", "result": 142, "unit": "µM"}, {"measurement": "IC50", "setting": "Chymotrypsinogen A [2]", "result": "Nd(Insoluble)"}, {"measurement": "Drug metabolism", "setting": "[12]", "result": "Metabolite detected"}, {"measurement": "inhibition", "setting": "[14]", "result": "< 50", "unit": "%"}]}
{"smiles": "C[C@@H]1O[C@@H](OC[C@H]2O[C@@H](Oc3c(-c4ccc(O)c(O)c4)oc4cc(O)cc(O)c4c3=O)[C@H](O)[C@@H](O)[C@@H]2O)[C@H](O)[C@H](O)[C@H]1O", "note": "[RUTIN]", "values": [{"measurement": "IC50", "setting": "Beta-lactamase [1]; read-out: IC50", "result": "> 500", "unit": "µM"}, {"measurement": "inhibition", "setting": "[15]", "result": 15, "unit": "%"}, {"measurement": "IC50", "setting": "Chymotrypsinogen A [2]; read-out: IC50", "result": 296, "unit": "µM"}, {"measurement": "IC50", "setting": "Chymotrypsinogen A [3]", "result": 281, "unit": "µM"}, {"measurement": "inhibition", "setting": "[4]", "result": "Active"}]}
